Tests used:
[1] = test system: S. typhimurium defensin sensitive strain (C590); test: Minimum inhibitory concentration (MIC), broth dilution; assay type: cell-based; conditions: MIC comparison with parent strain
Protocol: (§1) The minimum inhibitory concentrations of (MIC) of CEME, CEMA and melittin were determined for a number of different bacteria (Table 2). Briefly, cells were grown overnight at 37°C in LB-S (Luria broth without any salt supplement) and diluted one in 10,000 in the same medium to give concentrations of about 10^4 to 10^5 CFU/ml. The broth dilutions were set up in a 96 well microtiter plate by putting 200µl of LB-S containing the initial concentration of antibiotic or compound in column 1 and 100 µl of the same medium in columns 2-12. The compounds were diluted by taking 100 µl of broth from column 1 and mixing it with column 2, resulting in a one in two dilution. This was continued to column 10. Finally, 10 µl of bacteria were pipetted into columns 1-11, and the plates incubated overnight at 37°C. The next day the plates were scored for growth in the wells, and the MIC determined.

[2] = test system: a number of different bacteria; test: as above; assay type: cell-based; conditions: MIC comparison
Protocol: as §1

E. coli strain DC2 = test: Acid-urea gel overlay antibacterial activity test; assay type: cell-based; conditions: acid-urea gel overlaid with agar containing ≈ 10^5 E. coli strain DC2, overnight at 37°C
Protocol: A sample of the partially purified CEME protein was electrophoresed on a 15% acid-urea gel, which separates proteins based on charge and mass (Panyim and Chalkey, Arch. Biochem. Biophys., 130:337, 1969). The pH of the buffer is acidic (≈ pH 5.0) and the polarity is reversed such that proteins migrate to the cathode. Therefore, the small cationic peptides run relatively quickly through the gel and thus can be easily identified. Antibacterial activity was tested as previously described (Hultmark, Eur. J. Biochem., 106:7, 1980). The gel was incubated in Mueller Hinton broth + 0.2M NaPO4 pH 7.4 for 1 hr. It was overlaid with 5 mls of the same media containing 0.6% agar and ≈ 10^5 E. coli strain DC2, and then again with 5 ml of the same media containing only 0.6% agar. […] Melittin is used as a positive control due to its antibacterial activity and similarity in size and PI values.

P. aeruginosa = test: 1-N-phenylnaphthylamine (NPN) uptake assay; assay type: cell-based; conditions: 10 µM NPN, FIGURE 7
Description: (§2) The second assay determined membrane permeability by the ability of 1-N-phenylnaphthylamine (NPN), a small fluorescent probe, to insert itself into the membrane. Normally, very little NPN can penetrate the outer membrane, but in the presence of a membrane permeabilizer it can insert into the hydrophobic membrane resulting in an increase in fluorescence (FIGURES 7 and 8). This N-phenylnaphthylamine uptake assay was previously described by Loh, et al., Antimicrobial Agents and Chemo., 26:546, 1984. Cells were prepared exactly the same as for the lysozyme lysis assay. 1-N-phenylnaphthylamine (NPN) was dissolved in acetone at a concentration of 500 µM. NPN fluorescence was measured in a Perkin-Elmer 650-10S fluorescent spectrophotometer using excitation and emission wavelengths set to 350 nm and 420 nm respectively, with slit widths of 5 nm. The assay was standardized by adding 20 µl of NPN (final concentration of 10 µM) and 10µl of 0.64 mg/ml of polymyxin B (final concentration of 6.4 µg/ml) into 1 ml of cells, and adjusting the resulting fluorescence to read 90% deflection (90 arbitrary units). Various compounds were tested by adding 10 µl of different concentrations to a cuvette containing 1 ml of cells and 10 µM NPN. Permeabilizing activity was designated as the total fluorescence minus the fluorescence due to NPN alone. Following the fluorescence measurement, the OD600 of the cells was taken to ensure no significant cell lysis had occurred.

P. aeruginosa LPS = test: Dansyl polymyxin (DPx) displacement assay with purified LPS; assay type: binding; conditions: on a µM basis, compared with polymyxin B
Protocol: DPx is a derivative of polymyxin that fluoresces strongly when bound to LPS, but weakly when free in solution. In this assay, DPx was incubated with LPS to saturate the binding sites and then, while polycationic compounds are titrated into the reaction, displacement of the DPx was monitored by the decrease in fluorescence (FIGURE 9). P. aeruginosa LPS was isolated as previously described (Darveau, et al., J. of Bacteriology, 155:831, 1983) Dansyl polymyxin was synthesized as described by Schindler, et al., B. Antimicrobial Agents and Chemo, 8:95, 1975.
Briefly, 40 mgs of polymyxin B and 10 mgs of dansyl chloride were mixed in 2 mls of 60 mM NaHC03 and 40% acetone and incubated in the dark for 90 minutes. […] The dansyl polymyxin was resuspended in 5 mM Hepes pH 7.0, quantitated by dinitrophenylation and stored in aliquots at -20°C.
The method of Moore, et al., (Antimicrobial Agents end Chemo., 29:496, 1987), was used to test how much DPx was needed to saturate the binding sties on LPS. Briefly, 5 µl samples of 100 µM DPx were titrated sequentially into 1ml of 3 µg/ml of LPS until a maximum fluorescence was reached. The fluorescence was measured in a Perkin-Elmer 650-10S fluorescence spectrophotometer with an excitation wavelength of 340 nm and an emission wavelength of 485 nm using slit widths of 5 nm. […]

P. aeruginosa H309 = test: Lysozyme lysis assay (membrane permeabilization); assay type: cell-based; conditions: P. aeruginosa data only
Protocol: Membrane permeabilization by polycationic compounds was measured in two different assays. The first assay measured membrane disruption by the ability of lysozyme to reach the periplasm and cause cell lysis. […] The uptake of tysozyme into whole cells due to membrane permeabilization by various compounds was previously described in Hancock, et al., Antimicrobial Agents and Chemo., 19:777; 1981. Overnight cultures of P. aeruginosa H309 or E. cloacae 218R1 grown in LB-S were diluted 1 in 50 in fresh medium and grown to an OD600 ≈ 0.5-0.6. The cells were harvested in a Silencer H-103N clinical centrifuge at 1800 g for 10 min, washed once with one volume of assay buffer (5 mM HEPES pH 7.2, 5 mM KCN), and resuspended in the same buffer to an OD600 of 0.5. Assays consisted of 600 µl of cells with 50 µg/ml of chicken egg white lysozyme and varying concentrations of cationic compounds. Cell lysis was measured as a decrease in the OD600 in a Perkin-Emmer dual beam spectrophotometer. Parallel experiments performed without lysozyme enabled the measurement of the lytic activity of the compounds themselves. To test whether or not permeability to lysozyme could be inhibited by divalent cations, various concentrations of MgCl2 were added to the assay after the addition of lysozyme and before the addition of the test compound.

[3] = Synergy: MIC of antibiotics in the presence of sub-MIC levels of cationic peptides; assay type: cell-based
Protocol: as §1
The ability of the cationic peptides to work synergystically was examined by determining the MIC values for some commonly used antibiotics in the presence of sub-MIC levels of cationic peptides (Table 4). […] This may be due to the high membrane permeabilizing activity of CEMA (see below). However, the peptides did lower the MIC of polymyxin B, possibly due to the fact that they are all taken up by the same pathway and are therefore aiding each other's uptake. […]

E. cloacae = test: 1-N-phenylnaphthylamine (NPN) uptake assay; assay type: cell-based; conditions: 10 µM NPN, FIGURE 8
Description: as §2

Compound | sensitivity of the S. typhimurium defensin sensitive strain (C590) [1] | resistance of the mutant SC9252 [2] | zones of clearing at the migration site (E. coli strain DC2) | opening up the membrane to NPN (P. aeruginosa) | affinity for LPS (I50) (P. aeruginosa LPS) | permeabilizer for lysozyme relative to gentamicin (P. aeruginosa H309; lysis without lysozyme taken into consideration) | cell lysis in the absence of lysozyme (P. aeruginosa H309; increased concentrations of peptide) | effect on the MIC of polymyxin B [3] | opening up the membrane to NPN (E. cloacae)
CC(C)(O/N=C(\C(=O)N[C@@H]1C(=O)N2C(C(=O)[O-])=C(C[n+]3ccccc3)CS[C@H]12)c1csc(N)n1)C(=O)O [ceftazidime] | unchanged | increased resistance |  |  |  |  |  |  | 
gentamicin | two-fold more sensitive |  |  |  |  |  |  |  | 
melittin | two-fold more sensitive |  | zones of clearing | less active | slightly lower affinities | 5- to 10 fold | cell lysis in the absence of lysozyme occurred | lower than those in the presence of CEME and CEMA | 
polymyxin B | four-fold more sensitive | increased resistance |  | equally active |  |  |  |  | equally active

From patent publication EP0656952B1, “CATIONIC PEPTIDES AND METHOD FOR PRODUCTION” (THE UNIVERSITY OF BRITISH COLUMBIA, priority 1992, dated 1994)
